Measured values published in patent US20240059698A1 (Accutar Biotechnology Inc., priority 2022, published 2024).

Tests used:
Format in all cases: cell-based
[1] = tested on: HCC827 cells; experiment: Cell growth inhibition (CellTiter-Glo), HCC827; settings: Homo sapiens, 72 h, 3 days
Method in brief: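 HCC827 cells in RPMI and A431 cells in DMEM (both 10% FBS) were seeded at 5000 cells/well and left overnight. They were then exposed to compound dilutions for 3 days at 37° C. Viability was read by CellTiter-Glo luminescence.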

[2] = tested on: HCC827-SVD cells (human EGFR exon 20 insertion mutant D770_N771insSVD); experiment: Cell growth inhibition (CellTiter-Glo), HCC827-SVD; settings: 72 h, 3 days
Method in brief: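 HCC827 cells with endogenous EGFR knocked out and lentivirally expressing the insertion mutant (single clone) were seeded at 5000 cells/well in RPMI with 10% FBS. After overnight, compounds added; 3 days at 37 °C, then CellTiter-Glo luminescence.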

[3] = tested on: HCC827-YVMA cells (human ERBB2 exon20 insertion mutant A775_G776ins YVMA); experiment: Cell growth inhibition (CellTiter-Glo), HCC827-YVMA; settings: 72 h, HCC827-YVMA cells, 3 days, CellTiter-Glo, read-out: Cell growth inhibition, GI50 (nM) HCC827-YVMA
Method in brief: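 HCC827 cells transduced with lentiviral codon-optimized mutant (ERBB2 A775_G776insYVMA or EGFR V769_D770insASV), endogenous EGFR knocked out by CRISPR, single clone selected. Cells seeded overnight in RPMI/10% FBS, then exposed to serially diluted compounds at 37 °C for 3 days; viability read by CellTiter-Glo luminescence.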

[4] = tested on: A431 cells; experiment: Cell growth inhibition (CellTiter-Glo), A431; settings: Homo sapiens, A-431, 72 h, 3 days
Procedure: 2. Cell Growth Inhibition for HCC827, HCC827-SVD, HCC827-ASV, HCC827-YVMA, and A431.
HCC827(ATCC), HCC827-SVD, HCC827-ASV, and HCC827-YVMA cells were seeded in 96-well plates at 5000 cells/well in 90 μL of RPMI growth medium containing 10% FBS and 1% Penicillin Streptomycin. A431 (ATCC) cells were seeded in 96-well plates at 5000 cells/well in 90 μL of DMEM growth medium containing 10% FBS and 1% Penicillin Streptomycin. Cells were incubated at 37° C. overnight and then administered with 10 μL 10× test compounds prepared in the growth medium at various concentrations. After administration of the compounds, cells were incubated at 37° C. for 3 days. Before the CellTiter-Glo assay, the plates were equilibrated at room temperature for approximately 30 minutes. 100 ul of CellTiter-Glo reagent (Promega) was added to each well. The plates were then incubated at room temperature for 10 minutes and luminescence was recorded by the EnSight® multimode plate reader (PerkinElmer). Table 7 listed selected compounds in cellular growth assay.

## C=CC(=O)N1CCC(c2n[nH]c3ncnc(Nc4ccc(Oc5ccnc(N6CC(C)(OC)C6)c5)cc4F)c23)CC1 [Compound 178, 1-(4-(4-((2-fluoro-4-((2-(3-methoxy-3-methylazetidin-1-yl)pyridin-4-yl)oxy)phenyl)amino)-1H-pyrazolo[3,4-d]pyrimidin-3-yl)piperidin-1-yl)prop-2-en-1-one]
[1]
  GI50: > 1000 nM
[2]
  GI50: 200 to 1000 nM
[3]
  GI50: 50 to 200 nM
[4]
  GI50: > 1000 nM

## C=CC(=O)N1CCC(c2n[nH]c3ncnc(Nc4ccc(Oc5ccnc(N6CCC(C#N)C6)c5)cc4F)c23)CC1 (stereo not drawn) [Compound 179, 1-(4-(4-((3-(1-acryloylpiperidin-4-yl)-1H-pyrazolo[3,4-d]pyrimidin-4-yl)amino)-3-fluorophenoxy)pyridin-2-yl)pyrrolidine-3-carbonitrile]
[1]
  GI50: > 1000 nM
[2]
  GI50: 200 to 1000 nM
[3]
  GI50: 200 to 1000 nM
[4]
  GI50: > 1000 nM

## C=CC(=O)N1CCC(c2n[nH]c3ncnc(Nc4ccc(Oc5ccnc(N6CC7(CCOCC7)C6)c5)cc4F)c23)CC1 [Compound 181, 1-(4-(4-((4-((2-(7-oxa-2-azaspiro[3.5]nonan-2-yl)pyridin-4-yl)oxy)-2-fluorophenyl)amino)-1H-pyrazolo[3,4-d]pyrimidin-3-yl)piperidin-1-yl)prop-2-en-1-one]
[1]
  GI50: > 1000 nM
[2]
  GI50: 50 to 200 nM
[3]
  GI50: 50 to 200 nM
[4]
  GI50: > 1000 nM

## C=CC(=O)N1CCC(c2n[nH]c3ncnc(Nc4ccc(Oc5ccnc(NC(=O)C(C)C)c5)cc4F)c23)CC1 [Compound 182, N-(4-(4-((3-(1-acryloylpiperidin-4-yl)-1H-pyrazolo[3,4-d]pyrimidin-4-yl)amino)-3-fluorophenoxy)pyridin-2-yl)isobutyramide]
[1]
  GI50: > 1000 nM
[2]
  GI50: 50 to 200 nM
[3]
  GI50: 50 to 200 nM
[4]
  GI50: > 1000 nM

## C=CC(=O)N1CCC(c2n[nH]c3ncnc(Nc4ccc(Oc5ccn(S(=O)(=O)C(C)C)n5)cc4F)c23)CC1 [Compound 183, 1-(4-(4-((2-fluoro-4-((1-(isopropylsulfonyl)-1H-pyrazol-3-yl)oxy)phenyl)amino)-1H-pyrazolo[3,4-d]pyrimidin-3-yl)piperidin-1-yl)prop-2-en-1-one]
[1]
  GI50: 200 to 1000 nM
[2]
  GI50: 200 to 1000 nM
[3]
  GI50: 200 to 1000 nM
[4]
  GI50: > 1000 nM

## C=CC(=O)N1CCC(c2n[nH]c3ncnc(Nc4ccc(Oc5ccnc(C(=O)NC)c5)cc4F)c23)CC1 [Compound 184, 4-(4-((3-(1-acryloylpiperidin-4-yl)-1H-pyrazolo[3,4-d]pyrimidin-4-yl)amino)-3-fluorophenoxy)-N-methylpicolinamide]
[1]
  GI50: > 1000 nM
[2]
  GI50: > 1000 nM
[3]
  GI50: 200 to 1000 nM
[4]
  GI50: > 1000 nM

## C=CC(=O)N1CCC(c2n[nH]c3ncnc(Nc4ccc(O[C@H]5CCCN(S(=O)(=O)c6cccs6)C5)cc4F)c23)CC1 [Compound 186, (S)-1-(4-(4-((2-fluoro-4-((1-(thiophen-2-ylsulfonyl)piperidin-3-yl)oxy)phenyl)amino)-1H-pyrazolo[3,4-d]pyrimidin-3-yl)piperidin-1-yl)prop-2-en-1-one]
[1]
  GI50: 200 to 1000 nM
[2]
  GI50: 200 to 1000 nM
[3]
  GI50: 50 to 200 nM
[4]
  GI50: > 1000 nM

## C=CC(=O)N1CCC(c2n[nH]c3ncnc(Nc4ccc(O[C@H]5CCCN(S(=O)(=O)c6ccc(OC)nc6)C5)cc4F)c23)CC1 [Compound 187, (S)-1-(4-(4-((2-fluoro-4-((1-((6-methoxypyridin-3-yl)sulfonyl)piperidin-3-yl)oxy)phenyl)amino)-1H-pyrazolo[3,4-d]pyrimidin-3-yl)piperidin-1-yl)prop-2-en-1-one]
[1]
  GI50: 200 to 1000 nM
[2]
  GI50: 200 to 1000 nM
[3]
  GI50: 200 to 1000 nM
[4]
  GI50: > 1000 nM

## C=CC(=O)N1CCC(c2n[nH]c3ncnc(Nc4ccc(Oc5nc(-c6ccc(C(F)(F)F)nc6)cs5)cc4F)c23)CC1 [Compound 188, 1-(4-(4-((2-fluoro-4-((4-(6-(trifluoromethyl)pyridin-3-yl)thiazol-2-yl)oxy)phenyl)amino)-1H-pyrazolo[3,4-d]pyrimidin-3-yl)piperidin-1-yl)prop-2-en-1-one]
[1]
  GI50: 200 to 1000 nM
[2]
  GI50: 50 to 200 nM
[3]
  GI50: 50 to 200 nM
[4]
  GI50: > 1000 nM

## C=CC(=O)N1CCC(c2n[nH]c3ncnc(Nc4ccc(Oc5nc(-c6cnc(C)c(F)c6)cs5)cc4F)c23)CC1 [Compound 190, 1-[4-[4-[2-fluoro-4-[4-(5-fluoro-6-methyl-3-pyridyl)thiazol-2-yl]oxy-anilino]-1H-pyrazolo[3,4-d]pyrimidin-3-yl]-1-piperidyl]prop-2-en-1-one]
[1]
  GI50: 200 to 1000 nM
[2]
  GI50: 50 to 200 nM
[3]
  GI50: 50 to 200 nM
[4]
  GI50: > 1000 nM

## C=CC(=O)N1CCC(c2n[nH]c3ncnc(Nc4ccc(Oc5nc(-c6ccnn6C)cs5)cc4F)c23)CC1 [Compound 191, 1-(4-(4-((2-fluoro-4-((4-(1-methyl-1H-pyrazol-5-yl)thiazol-2-yl)oxy)phenyl)amino)-1H-pyrazolo[3,4-d]pyrimidin-3-yl)piperidin-1-yl)prop-2-en-1-one]
[1]
  GI50: 200 to 1000 nM
[2]
  GI50: 200 to 1000 nM
[3]
  GI50: 200 to 1000 nM
[4]
  GI50: > 1000 nM

## C=CC(=O)N1CCC(c2n[nH]c3ncnc(Nc4ccc(OCc5nnsc5Cl)cc4F)c23)CC1 [Compound 195, 1-(4-(4-((4-((5-chloro-1,2,3-thiadiazol-4-yl)methoxy)-2-fluorophenyl)amino)-1H-pyrazolo[3,4-d]pyrimidin-3-yl)piperidin-1-yl)prop-2-en-1-one]
[1]
  GI50: < 50 nM
[2]
  GI50: < 50 nM
[3]
  GI50: 50 to 200 nM
[4]
  GI50: > 1000 nM

## C=CC(=O)N1CCC(c2ccn3ncnc(Nc4ccc(Oc5ccnc(N6CC7C(C6)C7(F)F)c5)cc4F)c23)CC1 (stereo not drawn) [Compound 200, 1-(4-(4-((4-((2-(6,6-difluoro-3-azabicyclo[3.1.0]hexan-3-yl)pyridin-4-yl)oxy)-2-fluorophenyl)amino)pyrrolo[2,1-f][1,2,4]triazin-5-yl)piperidin-1-yl)prop-2-en-1-one]
[1]
  GI50: 200 to 1000 nM
[2]
  GI50: 50 to 200 nM
[3]
  GI50: 50 to 200 nM
[4]
  GI50: > 1000 nM

## C=CC(=O)N1CCC(c2ccn3ncnc(Nc4ccc(Oc5ccnc(N6CC(C)(OC)C6)c5)cc4F)c23)CC1 [Compound 203, 1-(4-(4-((2-fluoro-4-((2-(3-methoxy-3-methylazetidin-1-yl)pyridin-4-yl)oxy)phenyl)amino)pyrrolo[2,1-f][1,2,4]triazin-5-yl)piperidin-1-yl)prop-2-en-1-one]
[1]
  GI50: > 1000 nM
[2]
  GI50: 200 to 1000 nM
[3]
  GI50: 50 to 200 nM
[4]
  GI50: > 1000 nM

## C=CC(=O)N1CCC(c2ccn3ncnc(Nc4ccc(Oc5ccnc(N6CCC(C#N)C6)c5)cc4F)c23)CC1 (stereo not drawn) [Compound 204, 1-(4-(4-((5-(1-acryloylpiperidin-4-yl)pyrrolo[2,1-f][1,2,4]triazin-4-yl)amino)-3-fluorophenoxy)pyridin-2-yl)pyrrolidine-3-carbonitrile]
[1]
  GI50: > 1000 nM
[2]
  GI50: 50 to 200 nM
[3]
  GI50: 50 to 200 nM
[4]
  GI50: > 1000 nM

## C=CC(=O)N1CCC(c2ccn3ncnc(Nc4ccc(Oc5ccnc(N6CC7(CCOCC7)C6)c5)cc4F)c23)CC1 [Compound 205, 1-(4-(4-((4-((2-(7-oxa-2-azaspiro[3.5]nonan-2-yl)pyridin-4-yl)oxy)-2-fluorophenyl)amino)pyrrolo[2,1-f][1,2,4]triazin-5-yl)piperidin-1-yl)prop-2-en-1-one]
[1]
  GI50: > 1000 nM
[2]
  GI50: 200 to 1000 nM
[3]
  GI50: 50 to 200 nM
[4]
  GI50: > 1000 nM

## C=CC(=O)N1CCC(c2ccn3ncnc(Nc4ccc(Oc5nc(-c6cnc(C)c(F)c6)cs5)cc4F)c23)CC1 [Compound 206, 1-[4-[4-[2-fluoro-4-[4-(5-fluoro-6-methyl-3-pyridyl)thiazol-2-yl]oxy-anilino]pyrrolo[2,1-f][1,2,4]triazin-5-yl]-1-piperidyl]prop-2-en-1-one]
[1]
  GI50: > 1000 nM
[2]
  GI50: 200 to 1000 nM
[3]
  GI50: 50 to 200 nM
[4]
  GI50: > 1000 nM

## C=CC(=O)N1CCC(c2ccn3ncnc(Nc4ccc(Oc5nc(-c6ccnn6C)cs5)cc4F)c23)CC1 [Compound 207, 1-(4-(4-((2-fluoro-4-((4-(1-methyl-1H-pyrazol-5-yl)thiazol-2-yl)oxy)phenyl)amino)pyrrolo[2,1-f][1,2,4]triazin-5-yl)piperidin-1-yl)prop-2-en-1-one]
[1]
  GI50: > 1000 nM
[2]
  GI50: 200 to 1000 nM
[3]
  GI50: 50 to 200 nM
[4]
  GI50: > 1000 nM
